pIC50: −log10 of the molar value.

The record followed here is US10005769B2, “2,3-dihydrobenzofuran-5YL compounds as DYRK kinase inhibitors” (4SC DISCOVERY GMBH, priority 2013, dated 2018).

The test system of data set [1] is L3.6pl human metastatic pancreatic adenocarcinoma cells. As to the kind of experiment: Xenograft assay with L3.6pl cancer cells. It counts as in vivo, Foxn1nu/nu nude mice. As to conditions: 100 mg/kg/day p.o. daily. On the procedure:
The x-axis reflects the time [in days], while the y-axis reflects the tumor volume [in mm^3]. A xenograft assay with L3.6pl cancer cells was prepared as follows: 1×10^5 L3.6pl (Bruns et al., 1999) human metastatic pancreatic adenocarcinoma cells in 25% Matrigel (BD Biosciences, NJ, USA) were injected subcutaneously into the lower flanks of Foxn1nu/nu nude mice (Charles River Laboratories, USA). The compound of example 5 was administered p.o. daily with 100 mg/kg/day, dissolved in a mixture of 20% Glycofurol 75, 20% Oleic acid and 60% Olive oil; administration was started at the same day of injection of tumor cells. As a negative control, separate aminals were administered solvent vehicle without active compound. The tumor volume was measured with a caliper and calculated according to the formula [4/3×π×(length/2)×(width/2)×(height/2). Results are shown in FIG. 1, the p value was <0.01.

The subject of data set [2] is Hedgehog signaling pathway (Gli Reporter - NIH3T3 cell line). As to the kind of experiment: Hedgehog Reporter Assay (Gli-Reporter, luciferase, mSHH stimulated). Type of data set: cell-based, murine. As to conditions: Mus musculus; Gli Reporter NIH3T3 cells, 1 μg/ml mSHH, 24 h. On the procedure:
In order to investigate the potency of test compounds to inhibit the Hedgehog signaling pathway, a Gli-Reporter assay was performed. The “Gli Reporter-NIH3T3” cell line contains the firefly luciferase gene under the control of Gli responsive elements stably integrated into murine NIH3T3 cells (cells purchased from AMS Biotechnology ltd., 184 Milton Park, Abingdon OX14 4SE, U.K.). The luciferase expression correlates with activation of the hedgehog signaling pathway. This cell line is validated for its response to stimulation with murine Sonic Hedgehog and to treatment with inhibitors of the hedgehog signaling pathway. A multiplexed viability assay was used to discriminate inhibition on the pathway activity from cell toxicity. Growth Medium: DMEM (Dulbecco's Modified Eagle Medium); 10% Fetal Calf Serum; 1% Penicillin/Streptomycin; 500 μg/ml Geneticin (G418 Stock 50 mg/ml). Assay Medium: Opti-MEM® Reduced Serum Medium; 0.5% Calf Serum; 1% non-essential amino acids; 1 mM Na-pyruvate; 10 mM HEPES; 1% Penicillin/Streptomycin. 25,000 cells per well were seeded into a white 96 well plate in 100 μl growth medium and incubated over night at 37° C. and 5% CO2. After removing the supernatant the test compounds and controls were added in different concentrations in a final volume of 45 μl and incubated for 1 h at 37° C. and 5% CO2. For the stimulation of the Hedgehog pathway 5 μl of 10 μg/ml concentrated murine SHH (or mSHH; murine sonic hedgehog protein) was added to the cells. A final concentration of 1 μg/ml mSHH and 0.1% DMSO was reached per well. After incubation for 24 h at 37° C. the cells were investigated for viability and reporter activity. Viability: For the determination of the viability of the treated cells the CellTiter-FluorTM Kit from Promega comprising the fluorogenic, cell-permeant peptide substrate ([…]-aminofluorocoumarin GF-AFC was used. Roughly, only proteases of viable cells are able to cleave the GF-AFC. By this cleavage the fluorescent AFC is set free and can be detected in a fluorescence reader. For this assay 10 μl of GF-AFC substrate (CellTiter-FluorTM, Promega #G6082) was diluted in 2 ml assay buffer from the CellTiter-FluorTM Kit and 10 μl of this dilution was added per well to the cells and incubated for 30 min at 37° C. The fluorescence was measured with an excitation of 380-400 nm and an emission of 505 nm. Reporter activity: The firefly luciferase reporter activity was detected with the ONE-GloTM Luciferase Assay System from Promega. For this assay 50 μl ONE-Glo luciferase reagent (Promega #E6120, contains cell lysis buffer and luciferin) was added to each well and incubated at room temperature for 5 min. Luminescence was detected in a plate reader and served as a measure for reporter activity.
For orientation: Reporter assays use an easily measured gene product as a stand-in for the process of interest.

A further data set addresses DYRK1B (Homo sapiens (Human), UniProt Q9Y463). Briefly: DYRK1B Kinase Assay (33P ATP, DYRKtide substrate, Reaction Biology Corp.). The note with it: 0.3 nM DYRK1B, 20 μM DYRKtide, 10 μM ATP, 25° C., 120 min. Type of data set: biochemical. The essentials:
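DYRK1B (0.3 nM) with 20 μM DYRKtide peptide in HEPES pH 7.5 buffer, 1% DMSO; compound preincubated 20 min before 10 μM ATP plus 33P-ATP. Reaction 120 min at 25 °C, filter-binding readout of radiolabel. IC50 from curve fit of dilution series.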

Sequence of DYRK1B (Q9Y463 whole entry): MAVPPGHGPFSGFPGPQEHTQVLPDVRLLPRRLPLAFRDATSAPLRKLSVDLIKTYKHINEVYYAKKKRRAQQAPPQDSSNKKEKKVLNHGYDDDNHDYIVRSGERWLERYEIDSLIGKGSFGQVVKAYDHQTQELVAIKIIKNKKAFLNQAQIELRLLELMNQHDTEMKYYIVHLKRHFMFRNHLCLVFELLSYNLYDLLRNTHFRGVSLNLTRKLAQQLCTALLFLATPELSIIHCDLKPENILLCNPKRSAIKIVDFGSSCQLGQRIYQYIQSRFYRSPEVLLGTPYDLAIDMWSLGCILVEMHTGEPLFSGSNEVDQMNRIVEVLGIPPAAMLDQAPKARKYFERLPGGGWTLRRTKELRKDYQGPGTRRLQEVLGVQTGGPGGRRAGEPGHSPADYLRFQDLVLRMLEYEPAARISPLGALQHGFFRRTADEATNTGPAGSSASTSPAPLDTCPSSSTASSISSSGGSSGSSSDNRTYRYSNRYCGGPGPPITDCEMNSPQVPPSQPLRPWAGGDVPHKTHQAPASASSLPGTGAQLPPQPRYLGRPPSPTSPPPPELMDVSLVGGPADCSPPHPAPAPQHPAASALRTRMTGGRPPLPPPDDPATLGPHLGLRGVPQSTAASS

As a reminder, the pIC50 is the IC50 on a negative log10 scale, so that one unit is a factor of ten. Higher therefore signals a small IC50. Turning to `O=C(Nc1nc2cc(C(F)(F)F)ccc2[nH]1)c1csc(-c2ccc3c(c2)CCO3)n1` [Compound 5, 2-(2,3-Dihydrobenzofuran-5-yl)-N-(5-(trifluoromethyl)-1H-benzo[d]imidazol-2-yl)thiazole-4-carboxamide], the “animals' weight over the course of the experiment” value in data set [1] is given as “essentially unchanged”. Moreover, the pIC50 in data set [2] is 5.52 to 6.00; on DYRK1B it was 7.04.
